How the values were obtained:
[1] = solubility in water at room temperature; type: physicochemical
Procedure: Preferably, the reduction reaction is performed at a temperature in the range of 280 to 350° C. […] In addition, in order to maintain the liquid phase at a high temperature in the range described above, the pressure must be the saturated vapor pressure or higher (150 to 250 atm). Fortunately, using hydrogen dissolved in water prevents the equipment from deteriorating. Specifically, if hydrogen gas is supplied to a water medium containing 2,6-NDA, the hydrogen gas is used at such a high temperature and high pressure, consequently making the reactor brittle. In order to prevent the embrittlement, pressure-resistant equipment, which is expensive, is required.

[2] = solubility in alcohol at room temperature

Row | SMILES | solubility in water [1] | solubility in alcohols ([2]; any alcohols) | amount that dissolves in ethanol ([2]; ethanol) [mass %]
1 | O=C(O)c1ccc2cc(C(=O)O)ccc2c1 [2,6-NDA, 2,6-naphthalenedicarboxylic acid] | slightly soluble or insoluble | hardly dissolves | –
2 | O=C(O)c1ccc2ccccc2c1 [2-NA, 2-naphthoic acid] | – | – | 10

— patent US6756509B2, “Method for purifying crude 2,6-naphthalenedicarboxylic acid” (Kobe Steel, Ltd., priority 2001, dated 2004)
